This is an account of results in PMC10224201, “Characterization of Non-Specific Uptake and Retention Mechanisms of [^177Lu]Lu-PSMA-617 in the Salivary Glands” (Pharmaceuticals, 2023).

SMILES strings stand for the structures.

In the test the target is T1, PSMA (PC3-PIP cells) (Homo sapiens, UniProt Q04609).
T1 construct: gene FOLH1; full length, on intact PSMA-positive PC3-PIP prostate cancer cells (PC3-Flu as PSMA-negative control)
Briefly: competition with […]Lu-PSMA-617 on cells, gamma counting. It counts as cell-based. To be noted: read-out: % of control binding at 9000 μM.

T1 sequence (Q04609 whole entry): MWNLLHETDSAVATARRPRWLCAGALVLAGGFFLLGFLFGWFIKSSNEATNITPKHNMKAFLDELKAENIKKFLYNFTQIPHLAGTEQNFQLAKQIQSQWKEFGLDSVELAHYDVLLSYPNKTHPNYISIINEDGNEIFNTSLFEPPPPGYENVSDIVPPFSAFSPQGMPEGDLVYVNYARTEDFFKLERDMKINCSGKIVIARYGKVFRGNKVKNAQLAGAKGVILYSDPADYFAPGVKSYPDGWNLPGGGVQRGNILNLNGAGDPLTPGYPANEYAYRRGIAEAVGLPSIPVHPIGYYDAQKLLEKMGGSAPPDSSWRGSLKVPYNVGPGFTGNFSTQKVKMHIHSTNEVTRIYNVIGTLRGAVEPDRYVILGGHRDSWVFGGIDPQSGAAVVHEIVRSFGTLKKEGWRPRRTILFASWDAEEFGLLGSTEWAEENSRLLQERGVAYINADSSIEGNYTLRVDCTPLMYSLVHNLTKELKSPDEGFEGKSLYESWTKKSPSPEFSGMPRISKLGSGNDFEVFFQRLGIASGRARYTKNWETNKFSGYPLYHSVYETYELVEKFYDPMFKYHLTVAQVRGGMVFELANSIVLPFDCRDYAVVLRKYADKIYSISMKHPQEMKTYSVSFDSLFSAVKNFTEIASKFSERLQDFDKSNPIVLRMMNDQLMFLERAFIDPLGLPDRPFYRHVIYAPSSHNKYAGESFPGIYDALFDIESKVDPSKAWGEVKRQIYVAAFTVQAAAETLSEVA

As for `N[C@@H](CCC(=O)O)C(=O)O` [monosodium glutamate], the remaining activity at 9000 µM was determined as 24.9 ± 3.64%.
